From US20240018140A1, “MODIFIED IMIDAZOPYRIDINES AS GLUCOSYLCERAMIDE SYNTHASE INHIBITORS” (Merck Sharp & Dohme LLC, priority 2020, published 2024)

Target: glucosylceramide synthase (GCS) (Homo sapiens (Human), UniProt Q16739)
Assay: UDP-Glo glucosylceramide synthase biochemical assay
Conditions: endogenous GCS in Golgi preparations from human A375 malignant melanoma skin cells; C6 ceramide and UDP-glucose substrates; 20 h incubation; UDP detected by luminescence
Procedure, shortened: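 Endogenous GCS in Golgi preparations from A375 melanoma cells (1.5 μg total protein) preincubated 30 min at room temperature with compound. UDP-glucose and ceramide then added for 20 h at room temperature; UDP measured by luciferase luminescence. Normalized to DMSO (0%) and reference inhibitor (100%); EC50 and % Emax from 4PL fit.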

Sequence of glucosylceramide synthase (GCS) (Q16739 whole entry): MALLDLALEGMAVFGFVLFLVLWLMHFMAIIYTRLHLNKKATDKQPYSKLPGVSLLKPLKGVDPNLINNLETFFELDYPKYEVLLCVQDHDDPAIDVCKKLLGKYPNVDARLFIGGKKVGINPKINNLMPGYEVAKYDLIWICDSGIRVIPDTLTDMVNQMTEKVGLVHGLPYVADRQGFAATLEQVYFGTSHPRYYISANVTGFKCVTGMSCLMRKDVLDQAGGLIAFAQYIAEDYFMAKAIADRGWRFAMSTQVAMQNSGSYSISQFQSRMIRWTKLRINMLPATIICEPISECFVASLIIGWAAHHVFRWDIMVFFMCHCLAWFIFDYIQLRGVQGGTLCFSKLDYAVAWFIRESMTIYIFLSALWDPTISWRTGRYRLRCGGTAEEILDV

| Structure (SMILES) | EC50 [nM] |
| --- | --- |
| CC1(NC(=O)c2cn3cc(Cl)cc(-c4ccccc4OCC(F)(F)F)c3n2)CCCOC1 (racemic) [Compound 35, (R and S)-6-chloro-N-(3-methyltetrahydro-2H-pyran-3-yl)-8-(2-(2,2,2-trifluoroethoxy)phenyl)imidazo[1,2-a]pyridine-2-carboxamide] | 3.3 |
| O=C(NC12CCC(O)(CC1)C2)c1cn2cc(Cl)cc(-c3ccccc3OCC(F)(F)F)c2n1 [Compound 25, 6-chloro-N-(4-hydroxybicyclo[2.2.1]heptan-1-yl)-8-(2-(2,2,2-trifluoroethoxy)phenyl)imidazo[1,2-a]pyridine-2-carboxamide] | 2.5 |
| O=C(Nc1cccnc1)c1cn2cc(C(F)(F)F)cc(-c3ccccc3OCC(F)(F)F)c2n1 [Compound 15, N-(pyridin-3-yl)-8-(2-(2,2,2-trifluoroethoxy)phenyl)-6-(trifluoromethyl)imidazo[1,2-a]pyridine-2-carboxamide] | 0.029 |
| O=C(N[C@H]1CC[C@H](O)C[C@H]1F)c1cn2cc(Cl)cc(-c3ccccc3OCC(F)(F)F)c2n1 (mixture of isomers) [Compound 22, 6-chloro-N-((1S,2R,4S and 1R, 2S,4R)-2-fluoro-4-hydroxycyclohexyl)-8-(2-(2,2,2-trifluoroethoxy)phenyl)imidazo[1,2-a]pyridine-2-carboxamide] | 0.72 |
| O=C(NC1CCCC1)c1cn2cc(F)cc(-c3ccccc3OCC(F)(F)F)c2n1 [Compound 28, N-cyclopentyl-6-fluoro-8-(2-(2,2,2-trifluoroethoxy)phenyl)imidazo[1,2-a]pyridine-2-carboxamide] | 7.4 |
| COc1cc(-c2ccccc2OCC(F)(F)F)c2nc(C(=O)NC(C)(C)C(F)(F)F)cn2c1 [Compound 43, 6-methoxy-N-(1,1,1-trifluoro-2-methylpropan-2-yl)-8-(2-(2,2,2-trifluoroethoxy)phenyl)imidazo[1,2-a]pyridine-2-carboxamide] | 2.1 |
| CC(C)(NC(=O)c1cn2cc(C#N)cc(-c3ccccc3OCC(F)(F)F)c2n1)C(F)(F)F [Compound 44, 6-cyano-N-(1,1,1-trifluoro-2-methylpropan-2-yl)-8-(2-(2,2,2-trifluoroethoxy)phenyl)imidazo[1,2-a]pyridine-2-carboxamide] | 8.3 |
| CC1(NC(=O)c2cn3cc(Cl)cc(-c4ccccc4OCC(F)(F)F)c3n2)CCOC1 (racemic) [Compound 14, (R and S)-6-chloro-N-(3-methyltetrahydrofuran-3-yl)-8-(2-(2,2,2-trifluoroethoxy)phenyl)imidazo[1,2-a]pyridine-2-carboxamide] | 0.97 |
| O=C(NC12CCC(CO)(CC1)CC2)c1cn2cccc(-c3ccccc3OCC(F)(F)F)c2n1 [Compound 18, N-(4-(hydroxymethyl)bicyclo[2.2.2]octan-1-yl)-8-(2-(2,2,2-trifluoroethoxy)phenyl)imidazo[1,2-a]pyridine-2-carboxamide] | 2.3 |
| O=C(N[C@H]1CC[C@H](O)C1)c1cn2cccc(-c3ccccc3OCC(F)(F)F)c2n1 (relative stereo) [Compound 19, N-(trans-3-hydroxycyclopentyl)-8-(2-(2,2,2-trifluoroethoxy)phenyl)imidazo[1,2-a]pyridine-2-carboxamide] | 23 |
| O=C(N[C@H]1CC[C@H](O)CC1)c1cn2cc(Cl)cc(-c3ccccc3OCC(F)(F)F)c2n1 [Compound 24, 6-chloro-N-(trans-4-hydroxycyclohexyl)-8-(2-(2,2,2-trifluoroethoxy)phenyl)imidazo[1,2-a]pyridine-2-carboxamide] | 0.36 |
| COCC(C)(C)NC(=O)c1cn2cccc(-c3ccccc3OCC(F)(F)F)c2n1 [Compound 11, N-(1-methoxy-2-methylpropan-2-yl)-8-(2-(2,2,2-trifluoroethoxy)phenyl)imidazo[1,2-a]pyridine-2-carboxamide] | 38 |
| O=C(NC1CNCCC1(F)F)c1cn2cccc(-c3ccccc3OCC(F)(F)F)c2n1 (racemic) [Compound 17, (R and S)-N-(4,4-difluoropiperidin-3-yl)-8-(2-(2,2,2-trifluoroethoxy)phenyl)imidazo[1,2-a]pyridine-2-carboxamide] | 1.2 |

Next, values leading:

| EC50 [nM] | Structure (SMILES) |
| --- | --- |
| 6.9 | O=C(Nc1ccc2c(F)ccc(-c3ccccc3OCC(F)(F)F)c2n1)[C@H]1C[C@H](O)C1 [Compound 83, trans-N-(5-fluoro-8-(2-(2,2,2-trifluoroethoxy)phenyl)quinolin-2-yl)-3-hydroxycyclobutane-1-carboxamide] |
| 3 | O=C(Nc1ccc2cccc(-c3ccccc3OCC(F)(F)F)c2n1)[C@H]1C[C@H](O)C1 [Compound 82, trans-3-hydroxy-N-(8-(2-(2,2,2-trifluoroethoxy)phenyl)quinolin-2-yl)cyclobutane-1-carboxamide] |
| 13 | CC(C)(O)C1CN=C(c2cn3cc(Cl)cc(-c4ccccc4OCC(F)(F)F)c3n2)O1 (centres unmarked) [Compound 76, 2-[2-[6-chloro-8-[2-(2,2,2-trifluoroethoxy)phenyl]imidazo[1,2-a]pyridin-2-yl]-4,5-dihydrooxazol-5-yl]propan-2-ol] |
| 15 | CC1(C)CN=C(c2cn3cc(Cl)cc(-c4ccccc4OCC(F)(F)F)c3n2)O1 [Compound 69, 2-(6-chloro-8-(2-(2,2,2-trifluoroethoxy)phenyl)imidazo[1,2-a]pyridin-2-yl)-5,5-dimethyl-4,5-dihydrooxazole] |
| 5.7 | CC(O)c1cn2cc(C(F)(F)F)cc(-c3ccccc3OCC(F)(F)F)c2n1 (single isomer, unassigned) [Compound 63, (R or S) 1-(8-(2-(2,2,2-trifluoroethoxy)phenyl)-6-(trifluoromethyl)imidazo[1,2-a]pyridin-2-yl)ethan-1-ol] |
| 12 | NCC1CN=C(c2cn3cc(Cl)cc(-c4ccccc4OCC(F)(F)F)c3n2)O1 (centres unmarked) [Compound 74, (2-(6-chloro-8-(2-(2,2,2-trifluoroethoxy)phenyl)imidazo[1,2-a]pyridin-2-yl)-4,5-dihydrooxazol-5-yl)methanamine] |
| 13 | CC(O)c1cn2cc(Cl)cc(-c3ccccc3OCC(F)(F)F)c2n1 (centres unmarked) [Compound 64, 1-[6-chloro-8-[2-(2,2,2-trifluoroethoxy)phenyl]imidazo[1,2-a]pyridin-2-yl]ethanol] |
| 30 | CC(C)(O)C1COC(c2cn3cc(Cl)cc(-c4ccccc4OCC(F)(F)F)c3n2)=N1 (centres unmarked) [Compound 75, 2-(2-(6-chloro-8-(2-(2,2,2-trifluoroethoxy)phenyl)imidazo[1,2-a]pyridin-2-yl)-4,5-dihydrooxazol-4-yl)propan-2-ol] |
| 67 | CC(C)(O)c1cn2cc(Cl)cc(-c3ccc(F)cc3OCC(F)(F)F)c2n1 [Compound 67, 2-(6-chloro-8-(4-fluoro-2-(2,2,2-trifluoroethoxy)phenyl)imidazo[1,2-a]pyridin-2-yl) propan-2-ol] |
| 4 | O=C(N[C@H]1COC[C@@H]1F)c1cn2cc(Cl)cc(-c3ccccc3OCC(F)(F)F)c2n1 [Compound 46, 6-chloro-N-((3S,4R)-4-fluorotetrahydrofuran-3-yl)-8-(2-(2,2,2-trifluoroethoxy)phenyl)imidazo[1,2-a]pyridine-2-carboxamide] |
| 1.3 | OC(c1cn2cc(Cl)cc(-c3ccccc3OCC(F)(F)F)c2n1)C1CC1 (centres unmarked) [Compound 65, [6-chloro-8-[2-(2,2,2-trifluoroethoxy)phenyl]imidazo[1,2-a]pyridin-2-yl]-cyclopropyl-methanol] |
| 10 | OC(c1cn2cc(F)cc(-c3ccccc3OCC(F)(F)F)c2n1)C1CCOCC1 (centres unmarked) [Compound 68, (6-fluoro-8-(2-(2,2,2-trifluoroethoxy)phenyl)imidazo[1,2-a]pyridin-2-yl)(tetrahydro-2H-pyran-4-yl)methanol] |
| 0.083 | O=C(Nc1cccnc1)c1cn2cc(F)cc(-c3ccccc3OCC(F)(F)F)c2n1 [Compound 61, 6-fluoro-N-(pyridin-3-yl)-8-(2-(2,2,2-trifluoroethoxy)phenyl)imidazo[1,2-a]pyridine-2-carboxamide] |
